From US20230357154A1 (priority 2019, published 2023)
Read-outs that look alike come from different tables or passages of the source.

Key:
[1] = mouse, in vivo; for CA (pooled): BChE-KO, 5XFAD-BChE-KO (pooled)
[2] = type: in vivo; conditions: 5XFAD mouse, IV, 3D SPECT

Question: With O=C(OCc1ccc(I)cc1)c1cccc(=O)[nH]1 [TRV7005, (p-Iodophenyl)methyl 6-oxo-1H-pyridine-2-carboxylate] as the compound, how does the “time of peak radioligand uptake in brain” value ([1]; 5XFAD and WT (wild-type)) read?
Answer: Its value is 2 minutes post-injection.

Question: What about the “CA (pooled)” value ([1]; 5XFAD, WT) of the same compound?
Answer: The value was 45.4 ± 2.4 % Cmax.

Question: What about the t1/2 clearance ([1]; 5XFAD) of the same compound?
Answer: Its t1/2 clearance is 6.51 ± 1.19 min.

Question: What about the “CA (asymptotic tracer concentration)” value ([1]; 5XFAD-BChE-KO) of the same compound?
Answer: Its value is 42.8 % Cmax.

Question: What about the t1/2 clearance ([1]; WT) of the same compound?
Answer: Its t1/2 clearance is 7.21 ± 1.75 min.

Question: And the “kclearance (pooled)” value [1]?
Answer: Its value is 0.11 ± 0.02 min⁻¹.

Question: For O=C(OCc1ccccc1)c1cccc(OCc2ccc(I)cc2)n1 [TRV7040, Benzyl 6-[(p-iodophenyl)methoxy]-2-pyridinecarboxylate], which “ability to cross the blood-brain barrier / brain uptake” value ([1]; iv, 60 min) is on record?
Answer: The value was “inability of TRV7040 to cross the BBB and reach the brain”.

Question: And the “distribution of the tracer in vivo (extracranial)” value [2]?
Answer: The value was “avid uptake of TRV7040 is seen in the eye and hardarian glands”.

Question: What about the “radioligand reaching the brain” value [2] of the same compound?
Answer: Its value is “negligible radioligand reaching the brain”.

Question: What does the source list for Cn1c(C(=O)OCc2ccc(I)cc2)cccc1=O [TRV7006, (p-Iodophenyl)methyl 1-methyl-6-oxo-1H-pyridine-2-carboxylate]?
Answer: CA (pooled) ([1]; 5XFAD, WT): 51.6 ± 3.4 % Cmax; time of peak radioligand uptake in brain ([1]; WT and BChE-KO): 2 minutes post-injection; t1/2 clearance ([1]; WT): 4.72 ± 0.93 min; kclearance (pooled) [1]: 0.17 ± 0.03 min⁻¹

Question: Which results are given for COc1cccc(C(=O)OCc2ccc(I)cc2)n1 [TRV7019, (p-iodophenyl)methyl 6-methoxy-2-pyridinecarboxylate]?
Answer: time of peak radioligand uptake in brain ([1]; 5XFAD and WT): 1 minutes post-injection; decrease in kclearance ([1]; 5XFAD compared to WT): 58%; increase in t1/2clearance ([1]; 5XFAD compared to WT): 82%; CA (pooled) ([1]; 5XFAD, WT): 56.1 ± 3.5 % Cmax; t1/2 clearance ([1]; 5XFAD): 3.22 ± 0.55 min; t1/2 clearance ([1]; WT): 1.77 ± 0.15 min; t1/2 clearance [1]: 1.77 ± 0..15 min
